According to patent US8859541B2, “6-alkynylpyridines” (Boehringer Ingelheim International GmbH, priority 2012, dated 2014):

Assays:
[1] = biological target: T1, XIAP BIR3 (Homo sapiens, UniProt P98170); assay: XIAP BIR3 binding assay (DELFIA), displacement of SMAC peptide; settings: GST-fusion BIR3 domain (aa 241 to 356) 10 nM, SMAC peptide 10 nM; activity of the (S)-isomers
T1 construct: covering amino acids 241 to 356; XIAP BIR3; made in house; host or cells: E. coli
Procedure, shortened: (§1)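 Each BIR3 domain (10 nM) incubated with biotinylated N-terminal SMAC peptide (10 nM) and compound for 1 h at room temp in Tris/NaCl buffer with BSA, DTT and Triton X-100. Captured on streptavidin plates; bound BIR3 detected by Eu-labelled anti-GST time-resolved fluorescence, giving IC50 values.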

[2] = biological target: T2, cIAP1 BIR3 (Homo sapiens, UniProt Q13490); assay: cIAP1 BIR3 binding assay (DELFIA), displacement of SMAC peptide; settings: GST-fusion BIR3 domain (aa 256 to 363) 10 nM, SMAC peptide 10 nM; activity of the (S)-isomers
T2 construct: covering amino acids 256 to 363; cIAP1 BIR3; made in house; host or cells: E. coli
Procedure, shortened: as §1

T1 sequence (P98170 241-356): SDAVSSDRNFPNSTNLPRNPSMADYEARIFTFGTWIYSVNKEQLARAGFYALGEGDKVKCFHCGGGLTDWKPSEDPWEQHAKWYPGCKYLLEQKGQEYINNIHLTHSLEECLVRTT
T2 sequence (Q13490 256-363): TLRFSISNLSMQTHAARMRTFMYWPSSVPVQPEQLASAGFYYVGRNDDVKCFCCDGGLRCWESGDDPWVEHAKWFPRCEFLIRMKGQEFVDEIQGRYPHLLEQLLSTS

| Structure (SMILES) | IC50 [1] [nM] | IC50 [2] [nM] |
| --- | --- | --- |
| CC(N)C(=O)Nc1cccc(C#Cc2cccc(C(=O)N3CCOCC3)c2)n1 (centres unmarked) [Example 213, 2-amino-N-[6-[2-[3-(morpholine-4-carbonyl)-phenyl]ethynyl]pyridin-2-yl]propanamide] | 9950 | 2120 |
| CC(N)C(=O)Nc1cccc(C#Cc2cccnc2)n1 (centres unmarked) [Example 215, 2-amino-N-[6-(2-pyridin-3-ylethynyl)pyridin-2-yl]propanamide] | 9700 | 985 |
| CC(N)C(=O)Nc1cccc(C#Cc2cccs2)n1 (centres unmarked) [Example 217, 2-amino-N-[6-(2-thiophen-2-ylethynyl)pyridin-2-yl]propanamide] | 895 | 206 |
| COC(=O)c1cccc(C#Cc2cccc(NC(=O)C(C)N)n2)c1 (centres unmarked) [Example 223, methyl 3-[2-[6-[[2-aminopropanoyl]amino]pyridin-2-yl]ethynyl]benzoate] | 2460 | 2620 |
| Cc1cc(C)cc(C#Cc2nc(NC(=O)C(C)N)cc3ccccc23)c1 (centres unmarked) [Example 228, 2-amino-N-[1-[2-(3,5-dimethyl-phenyl)ethynyl]isoquinolin-3-yl]propanamide] | 1920 | 1470 |
| Cc1ccccc1C#Cc1cccc(NC(=O)C(C)N)n1 (centres unmarked) [Example 232, 2-amino-N-[6-[2-(2-methylphenyl)ethynyl]pyridin-2-yl]propanamide] | 1250 | 672 |
| CC(N)C(=O)Nc1cccc(C#Cc2ccc3cc[nH]c3c2)n1 (centres unmarked) [Example 234, 2-amino-N-[6-[2-(1H-indol-6-yl)ethynyl]pyridin-2-yl]propanamide] | 2730 | 1230 |
| CC(N)C(=O)Nc1cccc(C#Cc2ccoc2)n1 (centres unmarked) [Example 240, 2-amino-N-[6-[2-(furan-3-yl)ethynyl]pyridin-2-yl]propanamide] | 3020 | 1340 |

More lines, now with the values ahead:

| IC50 [1] [nM] | IC50 [2] [nM] | Structure (SMILES) |
| --- | --- | --- |
| 703 | 430 | CC(N)C(=O)Nc1cc2ccccc2c(C#Cc2ccccc2)n1 (centres unmarked) [Example 204, 2-amino-N-[1-(2-phenyl-ethynyl)isoquinolin-3-yl]-propanamide] |
| 3620 | 880 | CC(N)C(=O)Nc1cc2ccccc2c(C#Cc2ccccn2)n1 (centres unmarked) [Example 206, 2-amino-N-[1-(2-pyridin-2-ylethynyl)isoquinolin-3-yl]-propanamide] |
| 467 | 255 | CC(N)C(=O)Nc1cc2ccccc2c(C#Cc2cccs2)n1 (centres unmarked) [Example 208, 2-amino-N-[1-(2-thiophen-2-ylethynyl)isoquinolin-3-yl]-propanamide] |
| 1200 | 332 | CC(N)C(=O)Nc1cc2ccccc2c(C#Cc2cscn2)n1 (centres unmarked) [Example 226, 2-amino-N-[1-[2-(1,3-thiazol-4-yl)ethynyl]isoquinolin-3-yl]propanamide] |
| 2420 | 589 | CC(N)C(=O)Nc1cc2ccccc2c(C#Cc2cc(F)cc(F)c2)n1 (centres unmarked) [Example 229, 2-amino-N-[1-[2-(3,5-difluorophenyl)ethynyl]-isoquinolin-3-yl]propanamide] |
